Data: patent US20240041976A1, “COMPOSITION AND USE” (priority 2020, published 2024)
Like-named read-outs stand apart in the source and are kept apart here.

Experiments:
Format in all cases: cell-based, Staphylococcus aureus
S. aureus LMG3314 = test: AAMP assay (MIC), single components and formulation mixture; settings: for MIC: Staphylococcus aureus, LMG3314, 24 h, read-out: MIC, single component
Procedure: (§1) Antimicrobial activity was measured using the AAMP assay (Wiegand et al., 2008, Nat. Protoc., Vol. 3(2), p 163-175).
(§2) Three-component synergy was assessed by mixing the three components (100 μg of PenG, 50 μg of GarKS and 2.5 μg of MP1) into one well of a microtiter plate, compared with activity of individual antimicrobials on the same plate. The fractional inhibition concentration (FIC) which was used to define synergy was calculated as set forth in Example 1.

S. aureus LMG3026 = test: as above; settings: for MIC: Staphylococcus aureus, LMG3026, 24 h, read-out: MIC, single component
Procedure: as §1, §2

S. aureus LMG3271 = test: as above; settings: for MIC: Staphylococcus aureus, LMG3271, 24 h, read-out: MIC, single component
Procedure: as §1, §2

S. aureus LMG3266 = test: as above; settings: for MIC: Staphylococcus aureus, LMG3266, 24 h, read-out: MIC, single component
Procedure: as §1, §2

S. aureus LMG3328 = test: as above; settings: for MIC: Staphylococcus aureus, LMG3328, 24 h, read-out: MIC, single component
Procedure: as §1, §2

S. aureus LMG3265 = test: as above; settings: for MIC: Staphylococcus aureus, LMG3265, 24 h, read-out: MIC, single component
Procedure: as §1, §2

S. aureus LMG3322 = test: as above; settings: for MIC: Staphylococcus aureus, LMG3322, 24 h, read-out: MIC, single component
Procedure: as §1, §2

S. aureus LMG3258 = test: as above; settings: for MIC: Staphylococcus aureus, LMG3258, 24 h, read-out: MIC, single component
Procedure: as §1, §2

[1] = tested on: S. aureus ATTC 10832 biofilm; test: Biofilm-oriented antimicrobial test (BOAT), MIC50 in biofilms; settings: for MIC50: individual component
Procedure: (§3) Synergistic interactions between antimicrobials were determined using the fractional inhibition concentration (FIC). The FIC values were calculated as follows: the sum of the FIC =FICa+FICb+FICc, where the FICa means MIC of A in combination/MIC of A alone, FICb means MIC of B in combination/MIC of B, and FICc means MIC of C in combination/MIC of C alone. Effects were considered as synergistic if FIC was ≤0.5 for two components mixture and ≤0.75 for three components mixture.
(§4) Staphylococcus aureus strains were inoculated in 5 ml of TSB and incubated O/N at 37° C. Ten μl of the O/N cultures were then inoculated in 90 μl of TSB supplemented with 1% glucose and 1% NaCl (TSB-GN) in the appropriate wells of a 96-well microtiter plate (Sarstedt) to a final volume of 100 μl. The plates were then incubated at 37° C. for 24 h. After the incubation, the presence of the biofilm at the bottom of the wells was assessed visually.
(§5) The BOAT assay was performed as described previously (Gronseth et al., 2017, Int. J. Pediatr. Otorhinolaryngol., Vol. 103, p 58-64) with some modifications. The serial dilutions of the antimicrobials were prepared in challenge plates as follows: 175 μl of TSB were transferred in each row of a 96-well microtiter plate, except for the first row, according to the number of microbial strains to treat. In the first row of the plate, the antimicrobials were diluted to their respective working concentrations in a final volume of 350 μl of TSB. From the first row, 175 μl of the antimicrobial dilutions were then transferred to the second row of the plate and further serially diluted to the bottom of the plate. The same procedure was followed to prepare the controls, except that instead of the antimicrobials an equivalent volume of the respective vehicles were used. The biofilms were allowed to form for 24 h and then washed twice with 100 μl of sterile saline buffer and a total of 150 μl of the antimicrobial and control dilutions were transferred from the challenge plate to the corresponding wells of the biofilm plate. The challenged biofilms were then incubated for an additional 24 h at 37° C. After the challenge period, the antimicrobial dilutions were removed and the biofilms were carefully washed three times with 150 μl of sterile saline buffer. A total of 100 μl of TSB supplemented with 0.025% of triphenyl-tetrazolium chloride (TTC, Sigma) were then added to each well of the plate and further incubated at 37° C. for 5h. The results were then assessed by monitoring the development (or not) of red formazan (red colour), denoting the retention of metabolic activity by bacterial cells (Moussa et al., 2013, J. Mycol., Vol. 2013; Perez et al., 2010, Lett. Appl. Microbiol., Vol. 51, p 331-337). The medium was then removed and 200 μl of an ethanol:acetone (70:30) mixture was added to the wells and incubated O/N in order to extract the red formazan. The amount of extracted dye, reflecting the degree of bacterial cell metabolic activity, was then quantified by spectrophotometric readings at 492 nm.

S. aureus Newman biofilm = test: as above; settings: for MIC50: individual component
Procedure: as §3, §4, §5

[2] = tested on: S. aureus USA 300 biofilm; test: as above
Procedure: as §3, §4, §5

[3] = tested on: S. aureus ATTC 33591 biofilm; test: as above; settings: for MIC50 of the component in combination / MIC50: ATTC 33591, biofilm; for MIC50: individual component
Procedure: as §3, §4, §5

S.a. 3255 biofilm = test: as above; settings: for MIC50: individual component
Procedure: as §3, §4, §5

[4] = tested on: S. aureus ATTC 29213 biofilm; test: as above; settings: for MIC50: individual component
Procedure: as §3, §4, §5

[5] = Staphylococcus aureus, ATTC10832BIOFILM, read-out: MIC50
[6] = garvicin KS + micrococcin P1 + penicillin G
[7] = Staphylococcus aureus, read-out: MIC50
[8] = Staphylococcus aureus, USA300, individual component, read-out: MIC50
[9] = Staphylococcus aureus, ATTC33591BIOFILM, read-out: MIC50
[10] = Staphylococcus aureus, ATTC29213BIOFILM, read-out: MIC50

Molecule: CC1(C)S[C@@H]2[C@H](NC(=O)Cc3ccccc3)C(=O)N2[C@H]1C(=O)O [Penicillin G]
- MIC (S. aureus LMG3314): < 0.24 µg/mL
- MIC (S. aureus LMG3026): > 2500 µg/mL
- MIC (S. aureus LMG3271): < 0.24 µg/mL
- MIC (S. aureus LMG3266): 64 µg/mL
- MIC (S. aureus LMG3328): < 0.24 µg/mL
- MIC (S. aureus LMG3265): 125 µg/mL
- MIC (S. aureus LMG3322): < 0.24 µg/mL
- MIC (S. aureus LMG3258): 64 µg/mL
- MIC50 [1, 5]: 10000 µg/mL
- MIC50 of the component in combination [1, 6]: 310 µg/mL
- MIC50 of the component in combination ([1]; garvicin KS + penicillin G): 630 µg/mL
- MIC50 (S. aureus Newman biofilm; [7]): 10000 µg/mL
- MIC50 of the component in combination (S. aureus Newman biofilm; [6]): 2500 µg/mL
- MIC50 of the component in combination (S. aureus Newman biofilm; garvicin KS + penicillin G): 1300 µg/mL
- MIC50 [2, 8]: > 10000 µg/mL
- MIC50 of the component in combination [2, 6]: 10000 µg/mL
- MIC50 of the component in combination ([2]; garvicin KS + penicillin G): >10000 µg/mL
- MIC50 of the component in combination [3, 6]: 10000 µg/mL
- MIC50 of the component in combination ([3]; garvicin KS + penicillin G): >10000 µg/mL
- MIC50 [3, 9]: > 10000 µg/mL
- MIC50 (S.a. 3255 biofilm; [7]): 10000 µg/mL
- MIC50 of the component in combination (S.a. 3255 biofilm; [6]): 0.63 mg/mL
- MIC50 of the component in combination (S.a. 3255 biofilm; garvicin KS + penicillin G): 0.63 mg/mL
- MIC50 [4, 10]: 10000 µg/mL
- MIC50 of the component in combination [4, 6]: 630 µg/mL
- MIC50 of the component in combination ([4]; garvicin KS + penicillin G): 2500 µg/mL

Molecule: C/C=C(\NC(=O)c1csc(-c2csc(-c3ccc4c(n3)-c3csc(n3)[C@H]([C@@H](C)O)NC(=O)c3csc(n3)[C@H](C(C)C)NC(=O)c3csc(n3)/C(=C/C)NC(=O)[C@H]([C@@H](C)O)NC(=O)c3csc-4n3)n2)n1)C(=O)NC[C@@H](C)O [MP1, micrococcin P1]
- MIC (S. aureus LMG3314): 0.4 µg/mL
- MIC (S. aureus LMG3026): > 1.8 µg/mL
- MIC (S. aureus LMG3271): > 1.8 µg/mL
- MIC (S. aureus LMG3266): > 1.8 µg/mL
- MIC (S. aureus LMG3328): 0.9 µg/mL
- MIC (S. aureus LMG3265): 1.8 µg/mL
- MIC (S. aureus LMG3322): > 1.8 µg/mL
- MIC (S. aureus LMG3258): 1.8 µg/mL
- MIC50 [1, 5]: > 100 µg/mL
- MIC50 of the component in combination ([1]; garvicin KS + micrococcin P1): 25 µg/mL
- MIC50 of the component in combination [1, 6]: 3.1 µg/mL
- MIC50 (S. aureus Newman biofilm; [7]): > 100 µg/mL
- MIC50 of the component in combination (S. aureus Newman biofilm; garvicin KS + micrococcin P1): 25 µg/mL
- MIC50 of the component in combination (S. aureus Newman biofilm; [6]): 25 µg/mL
- MIC50 [2, 8]: > 100 µg/mL
- MIC50 of the component in combination ([2]; garvicin KS + micrococcin P1): 100 µg/mL
- MIC50 of the component in combination [2, 6]: 100 µg/mL
- MIC50 of the component in combination ([3]; garvicin KS + micrococcin P1): >100 µg/mL
- MIC50 of the component in combination [3, 6]: 100 µg/mL
- MIC50 [3, 9]: > 100 µg/mL
- MIC50 (S.a. 3255 biofilm; [7]): > 100 µg/mL
- MIC50 of the component in combination (S.a. 3255 biofilm; garvicin KS + micrococcin P1): 2.5 × 10^−2. mg/ml
- MIC50 of the component in combination (S.a. 3255 biofilm; [6]): 0.0063 mg/mL
- MIC50 [4, 10]: > 100 µg/mL
- MIC50 of the component in combination ([4]; garvicin KS + micrococcin P1): 25 µg/mL
- MIC50 of the component in combination [4, 6]: 6.3 µg/mL

B1: Garvicin KS: three-peptide leaderless bacteriocin (GarA, GarB, GarC; SEQ ID NO:6-8), peptides synthesized (peptide, listed as Lactococcus garvieae)
chain 1: MGAIIKAGAKIVGKGVLGGGASWLGWNVGEKIWK
chain 2: MGAIIKAGAKIIGKGLLGGAAGGATYGGLKKIFG
chain 3: MGAIIKAGAKIVGKGALTGGGVWLAEKLFGGK
- MIC, single component (S. aureus LMG3314; LMG3314): 32 µg/mL
- MIC, single component (S. aureus LMG3026; LMG3026): 16 µg/mL
- MIC, single component (S. aureus LMG3271; LMG3271): 32 µg/mL
- MIC, single component (S. aureus LMG3266; LMG3266): 32 µg/mL
- MIC, single component (S. aureus LMG3328; LMG3328): 32 µg/mL
- MIC, single component (S. aureus LMG3265; LMG3265): 16 µg/mL
- MIC, single component (S. aureus LMG3322; LMG3322): 16 µg/mL
- MIC, single component (S. aureus LMG3258; LMG3258): 32 µg/mL
- MIC50 of the component in combination ([1]; garvicin KS + micrococcin P1): 1250 µg/mL
- MIC50 of the component in combination [1, 6]: 160 µg/mL
- MIC50 of the component in combination ([1]; garvicin KS + penicillin G): 310 µg/mL
- MIC50 [1]: 2500 µg/mL
- MIC50 of the component in combination (S. aureus Newman biofilm; garvicin KS + micrococcin P1): 1250 µg/mL
- MIC50 of the component in combination (S. aureus Newman biofilm; [6]): 1250 µg/mL
- MIC50 of the component in combination (S. aureus Newman biofilm; garvicin KS + penicillin G): 630 µg/mL
- MIC50 (S. aureus Newman biofilm): 1250 µg/mL
- MIC50 of the component in combination ([2]; garvicin KS + micrococcin P1): 5000 µg/mL
- MIC50 of the component in combination [2, 6]: 5000 µg/mL
- MIC50 of the component in combination ([2]; garvicin KS + penicillin G): >5000 µg/mL
- MIC50 ([2]; individual component): 2500 µg/mL
- MIC increase compared to the planktonic state ([3]; ATCC 33591 biofilm): over 100 fold
- MIC50 of the component in combination ([3]; garvicin KS + micrococcin P1): >5000 µg/mL
- MIC50 of the component in combination [3, 6]: 5000 µg/mL
- MIC50 of the component in combination ([3]; garvicin KS + penicillin G): >5000 µg/mL
- MIC50 [3]: >5000 µg/mL
- MIC50 of the component in combination (S.a. 3255 biofilm; garvicin KS + micrococcin P1): 3.1 × 10^−1. mg/ml
- MIC50 of the component in combination (S.a. 3255 biofilm; [6]): 0.31 mg/mL
- MIC50 of the component in combination (S.a. 3255 biofilm; garvicin KS + penicillin G): 0.31 mg/mL
- MIC50 (S.a. 3255 biofilm): 1250 µg/mL
- MIC50 of the component in combination ([4]; garvicin KS + micrococcin P1): 1250 µg/mL
- MIC50 of the component in combination [4, 6]: 310 µg/mL
- MIC50 of the component in combination ([4]; garvicin KS + penicillin G): 1250 µg/mL
- MIC50 [4]: 1250 µg/mL
